Source: patent US20260083769A1, “2-Aminopropane-1,3-Diol-Capped Cationic Peptoids for Nucleic Acid Delivery” (NUTCRACKER THERAPEUTICS, INC., priority 2022, published 2026)
Like-named read-outs stand apart in the source and are kept apart here. Where a SMILES comes first, the peptide text is derived from it. [ ]: non-standard residue; d: D form. Gly(Nα-oleyl) = CCCCCCCC/C=C\CCCCCCCCNCC(=O)O; Gly(N-dodecyl) = CCCCCCCCCCCCNCC(=O)O; N(CH(CH2OH)2)Gly = O=C(O)CNC(CO)CO; N(octyl)Gly = CCCCCCCCNCC(=O)O; NDecylGly = CCCCCCCCCCNCC(=O)O; NHexGly = CCCCCCNCC(=O)O

Legend:
[1] = Percent encapsulated mRNA, RiboGreen assay; format: physicochemical
Procedure: Percent encapsulation. The percentage of mRNA encapsulated within the delivery vehicle complexes containing Fluc mRNA was determined using a modified RiboGreen® assay. In general, formulated mRNA samples were diluted to 500 ng/ml in Tris-EDTA buffer with or without Triton-X™. RiboGreen® (Invitrogen) was added at a 200-fold dilution, and the plate was incubated for 5 minutes. Fluorescence was measured at Ex. […]/Em. 520 nm and encapsulated mRNA was calculated by taking the ratio of fluorescence for non-lysed particles versus lysed particles.
The mRNA concentration and the percentage of encapsulated mRNA were determined using a fluorescence-based Quant-iT™ RiboGreen® RNA Reagent Kit using a literature procedure. To determine the mRNA concentration, delivery vehicles were incubated with 2% Triton™ X-100 for 10 min to release entrapped mRNA, followed by addition of RiboGreen® RNA reagent. The fluorescence intensity of mRNA-RiboGreen® reagent complex (excitation at 485 nm and emission at 530 nm) was detected using a microplate reader. The ratio of fluorescence without and with Triton™ X-100 were used to calculate the percentage of encapsulated mRNA.

[2] = Particle size and polydispersity (PDI) of delivery vehicles by dynamic light scattering; format: physicochemical
Procedure: The resulting delivery vehicle complexes were evaluated by dynamic light scattering (DLS) to determine the volume average particle size/diameter (nm) and the size polydispersity index (PDI) within the delivery vehicle complex.
Particle size. Particle sizes and size distributions were measured using a Wyatt DynaPro® Plate Reader III. In general, formulated samples were diluted to 2 ng/μL in 100 µL PBS. Data is reported as the hydrodynamic diameter (in nm) of the cumulant fit of the correlation function, and the polydispersity of that measurement.
In one particular instance, the size and polydispersity (PDI) of delivery vehicles was measured by dynamic light scattering in PBS using a DynaPro® plate reader III. The zeta potential of delivery vehicles was determined using Nano-ZS™ particle analyzer. Zeta sample was diluted to 30 uM total lipid in a weakly buffered solution of 10 mM HEPES, 10 mM MES, 10 mM ammonium acetate pH 7. Measurements were collected in duplicate for over 30 run with the voltage manually set to […]

[3] = RBC hemolysis as metric for fusogenicity; format: cell-based; conditions: sheep red blood cells (RBCs), 5% v/v
Procedure: RBC hemolysis was used as a metric for fusogenicity of LNPs at low pH. […] Particles were diluted to […] total lipid in well with 5% RBC solution and incubated at 37° C. for 45 min. Supernatant was collected and absorbance read on a microplate reader at 425 nm. Fusion was normalized to a fully lysed sample with 2% Triton™ and a buffer-only control. % hemolysis=100*[(ABS T-background)−(ABS sample-background)/(ABS T-background)].

[4] = Apparent particle pKa, TNS fluorescence assay; format: physicochemical; conditions: Table 5; apparent particle pKa of delivery vehicle
Procedure: The apparent particle pKa was assessed by a TNS fluorescence assay. Briefly, particles were diluted to 130 uM total lipid in TNS buffer ranging in pH 3-11 for 10 minutes with […] of TNS probe. The fluorescence was measured at room temperature in a plate reader ex 320/em 445. Fluorescence intensity was normalized to the minimal and maximal values and the pKa was determined by a 3 parameter fit to determine the half maximum of the curve.

[5] = Table 5, delivery vehicle comprising the peptoid, Formulation D22, fLuc mRNA
[6] = Table 5, delivery vehicle, 37° C. 45 min, pH 5, read-out: Hemolysis at pH 5
[7] = Table 5, delivery vehicle, 37° C. 45 min, pH 7, read-out: Hemolysis at pH 7
[8] = Table 6, comparative peptoid delivery vehicle, pH 5, read-out: Hemolysis at pH 5
[9] = Table 6, comparative peptoid delivery vehicle, pH 7, read-out: Hemolysis at pH 7
[10] = Table 6, comparative peptoid delivery vehicle

SMILES | % Encapsulation [1, 5] | PDI [2, 5] | Particle Size (nm) [2, 5] | hemolysis at 45 min, 150 mM total lipid [3, 6] | hemolysis at 45 min, 150 mM total lipid [3, 7] | pKa (TNS) [4] | hemolysis at 45 min, 150 mM total lipid [3, 8] | hemolysis at 45 min, 150 mM total lipid [3, 9] | % Encapsulation [1, 10] | PDI [2, 10] | Particle Size (nm) [2, 10]
CCCCCCCC/C=C\CCCCCCCCN(CC(=O)N(CCCCCCCCCCCC)CC(N)=O)C(=O)CN(CCCCCCCCCCCC)C(=O)CNC(CO)CO [Compound 4] (H-[N(CH(CH2OH)2)Gly][Gly(N-dodecyl)][Gly(Nα-oleyl)][Gly(N-dodecyl)]-NH2) | 12.3% | Multimodal | 631.3 nm |  |  |  |  |  |  |  | 
CCCCCCCCCCN(CC(N)=O)C(=O)CN(CCCCCCCCCC)C(=O)CN(CCCCCCCCCC)C(=O)CN(CC(CC)CCCC)C(=O)CN(CCCCCCCCCC)C(=O)CN(CCCCCCCCCC)C(=O)CN(CCCCCCCCCC)C(=O)CN(CC(CC)CCCC)C(=O)CNC(CO)CO (stereo not shown) [Compound 8] |  |  |  | 0.5% | -0.1% | 5.786 |  |  |  |  | 
CCCCCCCCN(CC(N)=O)C(=O)CN(CCCCCCCC)C(=O)CN(CCCCCCCC)C(=O)CN(CC(CC)CCCC)C(=O)CN(CCCCCCCC)C(=O)CN(CCCCCCCC)C(=O)CN(CCCCCCCC)C(=O)CN(CC(CC)CCCC)C(=O)CNC(CO)CO (stereo not shown) [Compound 11] | 66.1% | 0.111 | 106.6 nm |  |  |  |  |  |  |  | 
CCCCCCCCCCCCN(CC(=O)N(CC(=O)N(CCCCCCCCCCCC)CC(=O)N(CC(N)=O)CC(CC)CCCC)CC(CC)CCCC)C(=O)CNC(CO)CO (stereo not shown) [Compound 23] | 2.3% | Multimodal | 1269.5 nm |  |  |  |  |  |  |  | 
CCCCCCCCN(CC(=O)N(CCCCCCCC)CC(=O)N(CCCCCC)CC(=O)N(CCCCCCCC)CC(=O)N(CCCCCCCC)CC(=O)N(CCCCCC)CC(N)=O)C(=O)CNC(CO)CO [Compound 25] (H-[N(CH(CH2OH)2)Gly][N(octyl)Gly][N(octyl)Gly][NHexGly][N(octyl)Gly][N(octyl)Gly][NHexGly]-NH2) | 24.3% | Multimodal | 2220.3 nm | 94.6% | 94.7% |  |  |  |  |  | 
CCCCCCCCCCN(CC(N)=O)C(=O)CN(CCCCCCCC)C(=O)CN(CCCCCCCC)C(=O)CN(CCCCCCCCCC)C(=O)CN(CCCCCCCC)C(=O)CN(CCCCCCCC)C(=O)CNC(CO)CO [Compound 26] (H-[N(CH(CH2OH)2)Gly][N(octyl)Gly][N(octyl)Gly][NDecylGly][N(octyl)Gly][N(octyl)Gly][NDecylGly]-NH2) | 66.1% | Multimodal | 421.9 nm |  |  |  |  |  |  |  | 
CCCCCCCCCCN(CC(=O)N(CCCCCC)CC(N)=O)C(=O)CN(CCCCCCCC)C(=O)CN(CCCCCC)C(=O)CN(CCCCCCCCCC)C(=O)CN(CCCCCCCC)C(=O)CNC(CO)CO [Compound 32] (H-[N(CH(CH2OH)2)Gly][N(octyl)Gly][NDecylGly][NHexGly][N(octyl)Gly][NDecylGly][NHexGly]-NH2) | 23.3% | Multimodal | 692.4 nm |  |  |  |  |  |  |  | 
CCCCCCCCCCCCN(CC(N)=O)C(=O)CN(CCCCCCCCCCCC)C(=O)CN(CCCCCCCCCCCC)C(=O)CN(CCCCCCCCCCCC)C(=O)CNCCN [Compound C1, reference compound] |  |  |  |  |  |  | -15.1% | 39.2% | 86.6% | 0.206 | 61.3 nm
CCCCCCCCCCCCN(CC(N)=O)C(=O)CN(CCCCCCCCCCCC)C(=O)CN(CCCCCCCCCCCC)C(=O)CN(CCCCCCCCCCCC)C(=O)CNCCCO [Compound C2, reference compound] |  |  |  |  |  |  | 10.6% | 37.2% | 92.2% | 0.179 | 67.0 nm
CCCCCCCCCCCCN(CC(N)=O)C(=O)CN(CCCCCCCCCCCC)C(=O)CN(CCCCCCCCCCCC)C(=O)CN(CCCCCCCCCCCC)C(=O)CNCCO [Compound C3, reference compound] |  |  |  |  |  |  | 24.4% | 51.1% | 87.5% | 0.196 | 65.3 nm
CCCCCCCCCCCCN(CC(N)=O)C(=O)CN(CCCCCCCCCCCC)C(=O)CN(CCCCCCCCCCCC)C(=O)CN(CCCCCCCCCCCC)C(=O)CN(CCO)CCO [Compound C4, reference compound] |  |  |  |  |  |  | 4.9% | 12% | 90.5% | 0.186 | 67.7 nm
CCCCCCCCCCCCN(CC(N)=O)C(=O)CN(CCCCCCCCCCCC)C(=O)CN(CCCCCCCCCCCC)C(=O)CN(CCCCCCCCCCCC)C(=O)CNCCCN [Compound C5, reference compound] |  |  |  |  |  |  | -15.6% | 39.8% | 97.5% | 0.135 | 57.3 nm
CCCCCCCCCCCCN(CC(N)=O)C(=O)CN(CCCCCCCCCCCC)C(=O)CN(CCCCCCCCCCCC)C(=O)CN(CCCCCCCCCCCC)C(=O)CNCCOC [Compound C6, reference compound] |  |  |  |  |  |  | 4.9% | 22.7% | 92.6% | 0.223 | 67.1 nm
CCCCCCCCCCCCN(CC(N)=O)C(=O)CN(CCCCCCCCCCCC)C(=O)CN(CCCCCCCCCCCC)C(=O)CN(CCCCCCCCCCCC)C(=O)CNCCCOC [Compound C7, reference compound] |  |  |  |  |  |  | 31.6% | 65.5% | 93.1% | 0.219 | 71.3 nm
CCCCCCCCCCCCN(CC(N)=O)C(=O)CN(CCCCCCCCCCCC)C(=O)CN(CCCCCCCCCCCC)C(=O)CN(CCCCCCCCCCCC)C(=O)CNCCCn1ccnc1 [Compound C8, reference compound] |  |  |  |  |  |  | 2.3% | 8.1% | 93.5% | 0.192 | 60.2 nm
CCCCCCCCCCCCN(CC(N)=O)C(=O)CN(CCCCCCCCCCCC)C(=O)CN(CCCCCCCCCCCC)C(=O)CN(CCCCCCCCCCCC)C(=O)CNCCCn1ccnc1C [Compound C9, reference compound] |  |  |  |  |  |  | 0.7% | 2.4% | 98.8% | 0.201 | 63.0 nm
CCCCCCCCCCCCN(CC(N)=O)C(=O)CN(CCCCCCCCCCCC)C(=O)CN(CCCCCCCCCCCC)C(=O)CN(CCCCCCCCCCCC)C(=O)CNCCCN1CCOCC1 [Compound C10, reference compound] |  |  |  |  |  |  | 0.6% | 1% | 86.6% | 0.520 | 84.6 nm
CCCCCCCCCCCCN(CC(N)=O)C(=O)CN(CCCCCCCCCCCC)C(=O)CN(CCCCCCCCCCCC)C(=O)CN(CCCCCCCCCCCC)C(=O)CNCCCN1CCCCC1 [Compound C11, reference compound] |  |  |  |  |  |  | 9.6% | 10.2% | 92.4% | 0.179 | 70.2 nm
CCCCCCCCCCCCN(CC(N)=O)C(=O)CN(CCCCCCCCCCCC)C(=O)CN(CCCCCCCCCCCC)C(=O)CN(CCCCCCCCCCCC)C(=O)CN(CC)CCO [Compound C12, reference compound] |  |  |  |  |  |  | -2.4% | 3.9% | 95.9% | 0.175 | 62.4 nm
CCCCCCCCCCCCN(CC(N)=O)C(=O)CN(CCCCCCCCCCCC)C(=O)CN(CCCCCCCCCCCC)C(=O)CN(CCCCCCCCCCCC)C(=O)CNCCN(C)C [Compound C13, reference compound] |  |  |  |  |  |  | -12.3% | 8.2% | 95.4% | 0.180 | 57.6 nm
